This is an account of results in article PMC9380671, “Development of spiro-3-indolin-2-one containing compounds of antiproliferative and anti-SARS-CoV-2 properties” (Scientific Reports, 2022).

Data set [1] relates to HCT116 (colon) cancer cell line. The data set can be described thus: MTT antiproliferation, HCT116. As to conditions: for IC50: Homo sapiens, HCT-116, 72 h, read-out: IC50 (µM) ± SEM HCT116; for SI (selectivity index) HCT116: IC50 of RPE1/IC50 of cancer cell line. Format: cell-based, human. Summed up:
(§1)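 Cells seeded 30000/well for 24 h, then treated for 72 h with triplicate wells per dose; 0.5% DMSO as negative control. MTT (2.5 mg ml^-1) added for 4 h at 37 °C, crystals dissolved in 10% SDS overnight. Surviving fraction = O.D. treated / O.D. control.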

For data set [2], the system named is A431 (skin squamous) cancer cell line. The data set can be described thus: MTT antiproliferation, A431. The class given is cell-based, human. As to conditions: for IC50: Homo sapiens; for SI (selectivity index) A431: IC50 of RPE1/IC50 of cancer cell line. Summed up:
as §1

For data set [3], the system named is PaCa2 (pancreatic) cancer cell line. The data set can be described thus: MTT antiproliferation, PaCa-2. As to conditions: for IC50: Homo sapiens, PaCa-2, 72 h, read-out: IC50 (µM) ± SEM PaCa-2; for SI (selectivity index) PaCa-2: IC50 of RPE1/IC50 of cancer cell line. The class given is cell-based, human.
The subject of data set [4] is RPE1 (normal human immortalized retinal pigment epithelial cell line). Description: MTT toxicity towards normal cells, RPE1. As to conditions: RPE-1, read-out: IC50 (µM) ± SEM RPE1. The class given is cell-based.
The test system of data set [5] is MCF7 (breast cancer cell line). The data set can be described thus: PI-flow cytometry cell cycle studies. The class given is cell-based, human. As to conditions: MCF7, PI-FC, compound at its MTT IC50. The method, then: Flow cytometry (FC) is a reliable technique for evaluation of cancer cell progression[72]–[74]. Illumination of the cells by lasers can identify the stained propidium iodide (PI) DNA cell content in stoichiometric population value. This is a commonly accessible methodology for studying cancer cell antiproliferation and cell cycle phase suppression.
Cell cycle studies for the most promising agents synthesized (6l and 6m) against MCF7 (breast) cancer call were conducted by the standard technique. The Cells were suspended in DMEM medium in addition to 1% antibiotic–antimycotic mixture (10000 μg ml^-1 potassium penicillin, 10000 μg ml^-1 streptomycin sulfate and 25 μg ml^-1 amphotericin B), 10% fetal bovine serum and 1% L-glutamine at 37 °C, under 5% CO2 and 95% humidity. Cells were seeded at concentration of 30000 cells per well in fresh complete growth medium in 96-well tissue culture microtiter plates for 24 h. Media was aspirated, fresh complete medium was added and cells were incubated with the IC50 concentration of the tested compounds which determined previously in the MTT antiproliferation testing assay. The ab139418-Propidium Iodide Flow Cytometry kit for cycle analysis (reader: BD FACS Calibur)^8 was used for cell cycle analysis. The Annexin V-FITC Apoptosis Detection Kit (Catalog#K101-25) was utilized for apoptosis studies.^9 All the studies were conducted according to the manufacturer’s instruction.
In general terms: In flow cytometry, cells or beads pass a laser one at a time.

Another data set addresses T1, VEGFR-2 (Homo sapiens, UniProt P35968).
T1 construct: Western blot technique was considered for EGFR and VEGFR-2 properties determination; endogenous in cells; host or cells: MCF7 (breast cancer cell line)
The class given is cell-based. As to conditions: western blot, MCF7, compound at its MTT IC50; for VEGFR-2 RQ (relative quantification): control RQ 3.2634. A digest of the protocol: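 Western blot of MCF7 breast cancer cells, each agent tested at its own IC50 from the MTT assay on that line, following the manufacturer's instructions.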
A general note: Immunoblotting shows a protein as a band on a membrane.

In data set [6] the test system is SARS-CoV-2 (hCoV-19/Egypt/NRC-03/2020). Description: Vero-E6 cell viral infection model, anti-SARS-CoV-2 IC50 (CPE, crystal violet). The class given is cell-based. The note with it: for IC50: Severe acute respiratory syndrome coronavirus 2, Vero C1008; for SI = CC50/IC50: Vero-E6, SARS-CoV-2.
The target of another data set is AChE (Homo sapiens, UniProt P22303). The data set can be described thus: AChE inhibition (DTNB, acetylthiocholine). Format: biochemical. The note with it: for IC50: read-out: AChE (IC50, μM) ± SD. The procedure:
All compounds were dissolved in MeOH.

Where [7] appears, read: A-431, 72 h, read-out: IC50 (µM) ± SEM A431.
Where [8] appears, read: A-431, read-out: Observed log(IC50, μM) (A431) (converted).
The mark [9] stands for this setting: Vero-E6, 72 h, reduction of virus-induced CPE, read-out: IC50 (µM) SARS-CoV-2.
The mark [10] stands for this setting: log of observed IC50 in μM, read-out: Observed log(IC50, μM) (SARS-CoV-2) (converted).

Read-outs that look alike come from different tables or passages of the source.

T1 sequence (P35968 20-1356): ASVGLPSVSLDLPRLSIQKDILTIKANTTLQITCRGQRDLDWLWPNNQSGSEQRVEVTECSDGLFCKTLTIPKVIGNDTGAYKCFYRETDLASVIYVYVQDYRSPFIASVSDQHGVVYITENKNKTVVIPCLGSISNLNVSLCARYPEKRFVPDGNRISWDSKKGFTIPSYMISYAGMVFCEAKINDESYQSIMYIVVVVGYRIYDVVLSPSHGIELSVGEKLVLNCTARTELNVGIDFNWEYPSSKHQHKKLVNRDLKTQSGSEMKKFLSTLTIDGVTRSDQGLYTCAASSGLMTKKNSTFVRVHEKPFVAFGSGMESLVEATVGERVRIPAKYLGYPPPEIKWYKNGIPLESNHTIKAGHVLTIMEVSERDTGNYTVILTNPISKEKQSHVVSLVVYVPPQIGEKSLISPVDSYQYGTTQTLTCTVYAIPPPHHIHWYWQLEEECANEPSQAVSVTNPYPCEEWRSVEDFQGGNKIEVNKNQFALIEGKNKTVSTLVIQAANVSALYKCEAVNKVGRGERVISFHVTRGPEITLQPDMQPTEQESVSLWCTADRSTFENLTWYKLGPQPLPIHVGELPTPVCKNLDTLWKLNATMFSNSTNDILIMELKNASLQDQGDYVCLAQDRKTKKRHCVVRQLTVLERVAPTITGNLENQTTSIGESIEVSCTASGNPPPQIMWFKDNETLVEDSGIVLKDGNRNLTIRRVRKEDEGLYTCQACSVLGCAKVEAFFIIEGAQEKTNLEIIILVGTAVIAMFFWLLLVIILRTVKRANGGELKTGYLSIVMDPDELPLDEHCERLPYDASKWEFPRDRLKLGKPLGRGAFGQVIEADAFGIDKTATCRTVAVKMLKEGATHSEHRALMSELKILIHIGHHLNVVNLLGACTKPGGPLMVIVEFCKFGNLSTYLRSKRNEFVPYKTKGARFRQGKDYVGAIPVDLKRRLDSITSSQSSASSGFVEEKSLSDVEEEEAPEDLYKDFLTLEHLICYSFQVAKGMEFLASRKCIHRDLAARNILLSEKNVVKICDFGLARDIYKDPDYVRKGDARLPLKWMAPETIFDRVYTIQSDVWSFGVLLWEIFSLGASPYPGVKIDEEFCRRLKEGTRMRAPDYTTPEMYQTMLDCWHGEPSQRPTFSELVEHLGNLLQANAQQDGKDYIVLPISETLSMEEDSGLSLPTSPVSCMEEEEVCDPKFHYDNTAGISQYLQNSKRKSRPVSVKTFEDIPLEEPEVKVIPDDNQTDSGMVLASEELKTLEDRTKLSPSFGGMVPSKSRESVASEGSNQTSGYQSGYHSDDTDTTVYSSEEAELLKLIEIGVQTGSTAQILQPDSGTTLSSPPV
Sequence of AChE (P22303 32-614): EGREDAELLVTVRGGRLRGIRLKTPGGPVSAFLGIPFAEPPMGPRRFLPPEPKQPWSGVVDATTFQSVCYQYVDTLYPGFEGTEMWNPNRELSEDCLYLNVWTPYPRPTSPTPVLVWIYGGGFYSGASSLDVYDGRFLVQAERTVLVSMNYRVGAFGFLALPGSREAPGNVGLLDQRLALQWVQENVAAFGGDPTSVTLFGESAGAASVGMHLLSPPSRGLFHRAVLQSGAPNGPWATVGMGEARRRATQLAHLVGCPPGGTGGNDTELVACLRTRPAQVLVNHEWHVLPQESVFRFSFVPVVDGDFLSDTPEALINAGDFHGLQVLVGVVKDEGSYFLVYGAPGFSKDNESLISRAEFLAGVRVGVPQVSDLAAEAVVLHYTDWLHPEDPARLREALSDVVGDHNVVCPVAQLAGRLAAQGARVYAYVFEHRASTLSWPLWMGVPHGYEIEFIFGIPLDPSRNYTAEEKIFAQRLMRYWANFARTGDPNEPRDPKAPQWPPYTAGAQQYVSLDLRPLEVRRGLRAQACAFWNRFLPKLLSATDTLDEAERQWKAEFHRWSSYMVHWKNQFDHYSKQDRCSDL

For the compound `CN1CC(c2ccc(Br)cc2)C2(CN(S(C)(=O)=O)C/C(=C\c3ccc(Br)cc3)C2=O)C12C(=O)Nc1ccccc12` (stereo not shown) [Compound 6m, (E)-5″-(4-Bromobenzylidene)-4′-(4-bromophenyl)-1′-methyl-1″-(methylsulfonyl)dispiro[indoline-3,2′-pyrrolidine-3′,3″-piperidine]-2,4″-dione], the IC50 was 3.24 ± 0.27 µM in data set [1]; 2.43 ± 0.18 µM in data set [2] (setting [7]); 2.43 µM in data set [2] (setting [8]); 12.5 ± 0.67 µM in data set [3]; 14.9 ± 1.61 µM in data set [4]; 8.92 µM in data set [6] (setting [9]). The IC50 was 8.92 µM in data set [6] (setting [10]) and 29.7 ± 4.05 µM at AChE. In data set [1], the “SI (selectivity index) HCT116” value is given as 4.6. Also, the “SI (selectivity index) A431” value in data set [2] amounted to 6.1. Further, the “efficacy, times more than the standard reference 5-fluorouracil (A431)” value in data set [2] (ratio of IC50 values) is “about 9.6 times”. Also, in data set [3], the “SI (selectivity index) PaCa-2” value is reported as 1.2. The “% DNA content G0–G1” value in data set [5] is reported as 62.51%. Moreover, in data set [5], the “% DNA content G2/M” value was found to be 2.38%. Besides, the “% DNA content S” value in data set [5] is listed as 35.11%. At VEGFR-2, the “VEGFR-2 % Inhibition” value came out at 61.3%. Besides, the “VEGFR-2 RQ (relative quantification)” value at VEGFR-2 amounted to 1.264. Moreover, the “SI = CC50/IC50” value in data set [6] was 17.9. The “SI = IC50 (AChE)/IC50 (BChE)” value at AChE is listed as 1.1.
In the case of `CCS(=O)(=O)N1C/C(=C\c2ccc(Cl)cc2)C(=O)C2(C1)C(c1ccc(Cl)cc1)CN(C)C21C(=O)Nc2ccc(Cl)cc21` (stereo not shown) [Compound 6l, (E)-5-Chloro-5″-(4-chlorobenzylidene)-4′-(4-chlorophenyl)-1″-(ethylsulfonyl)-1′-methyldispiro[indoline-3,2′-pyrrolidine-3′,3″-piperidine]-2,4″-dione], the half-inhibitory concentration (IC50) in data set [1] is 4.11 ± 0.41 µM; in data set [2] (setting [7]), 3.69 ± 0.33 µM; in data set [2] (setting [8]) it was 3.69 µM; in data set [3], 11.9 ± 0.83 µM; in data set [4] it was greater than 50 µM; in data set [6] (setting [9]), 31.4 µM. Also, the IC50 in data set [6] (setting [10]) was 31.4 µM; at AChE, 23.6 ± 7.73 µM. Moreover, in data set [1], the “SI (selectivity index) HCT116” value is listed as greater than 12.2. Further, in data set [2], the “SI (selectivity index) A431” value is given as greater than 13.5. Besides, the “SI (selectivity index) PaCa-2” value in data set [3] is greater than 4.2. In addition, in data set [5], the “% DNA content G0–G1” value was determined as 66.13%. Further, the “% DNA content G2/M” value in data set [5] is 10.13%. Moreover, the “% DNA content S” value in data set [5] turned out to be 23.74%. Besides, on VEGFR-2, the “VEGFR-2 % Inhibition” value amounted to 60.2%. The “VEGFR-2 RQ (relative quantification)” value on VEGFR-2 is listed as 1.299. In addition, the “SI = CC50/IC50” value in data set [6] is 15.1. On AChE, the “SI = IC50 (AChE)/IC50 (BChE)” value is recorded as 2.0.

What is called IC50 is the concentration that inhibits the measured activity by half.
